Reference: article PMC5609566, “Elucidation of antimicrobial activity and mechanism of action by N-substituted carbazole derivatives” (Bioorganic & Medicinal Chemistry Letters, 2017)
In brackets after ≈: the same amount, converted by molar mass.

Columns and labels:
Type in all cases: cell-based
Candida albicans SC5314 = assay: Fungal growth inhibition MIC (MFC); conditions: for MIC: Candida albicans SC5314, RPMI-1640; for MFC: Candida albicans SC5314, value in brackets
Description: (§1) We subsequently assessed the carbazole series for antifungal activity, as described in Kjellerup et al., 2017.[15] Table 2, Table 3, Table 4, Table 5 list the minimum inhibitory concentrations (MIC) and the minimum fungicidal concentrations (MFC) of the fifteen compounds tested against the yeasts Saccharomyces cerevisiae, Candida albicans, C. krusei, and two isolates of C. glabrata (a wild-type strain ATCC 90030 and a clinical azole-resistant isolate Cg003 with increased efflux pump expression[19]), and the molds Aspergillus fumigatus and A. flavus. MIC was defined as the lowest concentration inhibiting visual growth of the microorganism in RPMI-1640 media. […] However, in several cases antifungal activity against molds was minimal, Table 5.
(§2) Compound hits from the library screening were evaluated against baker yeast S. cerevisiae and C. albicans (ATCC 90028). The minimum inhibitory concentration (MIC) was defined as the lowest concentration inhibiting visual growth of the microorganism and this was determined in triplicate. Standard errors were typically less than 5%. MICs for synthesized compounds were determined on the following fungal isolates: Saccharomyces cerevisiae (ATCC 9763), Candida albicans (SC5314), Candida krusei (ATCC 6258), Candida glabrata (ATCC 90030), Aspergillus flavus (ATCC MYA-1005) and Aspergillus fumigatus (ATCC 13073), which were purchased from American Type Culture Collection, and C. glabrata strain Cg003, which was kindly provided by Julius Subik, Comenius University in Bratislava, Slovak Republic. Cg003 is a clinical isolate, characterized to be resistant to fluconazole and itraconazole due to overexpression of the multidrug resistance efflux pumps Cdr1p and Cdr2p^5. The fungal growth assay was performed as described in Kjellerup et al., 2017^6.

[1] = system: Candida glabrata ATCC 90030; assay: Fungal growth inhibition MIC (MFC); conditions: Nakaseomyces glabratus, ATCC90030, Candida glabrata ATCC 90030 (wild-type); for MIC: RPMI-1640; for MFC: value in brackets
Description: as §1, §2

Candida glabrata Cg003 = assay: Fungal growth inhibition MIC (MFC); conditions: Nakaseomyces glabratus, Candida glabrata Cg003 (clinical azole-resistant isolate); for MIC: RPMI-1640; for MFC: value in brackets
Description: as §1, §2

Candida krusei ATCC 6258 = assay: Fungal growth inhibition MIC (MFC); conditions: Pichia kudriavzevii, ATCC6258; for MIC: Candida krusei ATCC 6258, RPMI-1640; for MFC: Candida krusei ATCC 6258, value in brackets
Description: as §1, §2

[2] = system: Saccharomyces cerevisiae ATCC 9763; assay: Fungal growth inhibition MIC (MFC); conditions: ATCC9763; for MIC: Saccharomyces cerevisiae ATCC 9763, RPMI-1640; for MFC: Saccharomyces cerevisiae ATCC 9763, value in brackets
Description: as §1, §2

[3] = system: Escherichia coli ATCC 25922; assay: Bacterial growth inhibition assay; conditions: ATCC25922; Escherichia coli ATCC 25922, n=3
Description: (§3) To further support the notion that the carbazole H^+-ATPase inhibitors were specific inhibitors of fungal growth, we tested the effect of all fifteen compounds on the growth of two bacterial species; the gram-positive Staphylococcus aureus and the gram-negative Escherichia coli. […] Compound 16 and 17 were interesting as they were potent inhibitors of the ATP hydrolysis in the enzymatic assay and potent H^+-ATPase inhibitors in whole fungal cell assay (iATP and extracellular acidification).
(§4) The bacterial strains used in this study were purchased from DSMZ, Germany. Bacteria cells were grown in Mueller-Hinton broth (MHB) to mid-exponential phase and freeze stocks were prepared at 1-2 × 10^8 CFU/mL in MHB and 20% glycerol and stored at -20 °C. These stocks were used to inoculate bacterial growth assays at a final concentration of 5 × 10^5 CFU/mL in MHB together with 1.5 % DMSO or compound in a 96-well plate and incubated for 16-29 h at 35 °C, whereafter growth was determined by reading at OD600. Kanamycin and ampicillin were used as positive control compounds. Experiments were performed at least twice and standard errors were typically less than 5 %.

[4] = system: Staphylococcus aureus ATCC 29213; assay: Bacterial growth inhibition assay; conditions: ATCC29213; Staphylococcus aureus ATCC 29213, n=3
Description: as §3, §4

In the case of COc1ccc2c(c1)c1cc(OC)ccc1n2CC(O)CN1CCN(C)CC1 (stereo not drawn) [Compound 11, 1-(3,6-dimethoxy-9H-carbazol-9-yl)-3-(4-methylpiperazin-1-yl)propan-2-ol], the MIC (Candida albicans SC5314) is reported as > 75 µM, the MFC (Candida albicans SC5314) is reported as > 75 µM and the MIC [1] is reported as > 75 µM. For the same compound, the MFC [1] was > 75 µM, the MIC (Candida glabrata Cg003) was > 75 µM and the MFC (Candida glabrata Cg003) was > 75 µM. For the same compound, the MIC (Candida krusei ATCC 6258) was > 75 µM, the MFC (Candida krusei ATCC 6258) was > 75 µM and the MIC [2] was > 75 µM. The MFC [2] was > 75 µM, the MIC [3] was > 75 µM and the MIC [4] was > 75 µM.
For CN1CCN(CC(O)Cn2c3ccc(C#N)cc3c3cc(C#N)ccc32)CC1 (stereo not drawn) [Compound 12, 9-(2-hydroxy-3-(4-methylpiperazin-1-yl)propyl)-9H-carbazole-3,6-dicarbonitrile], the MIC (Candida albicans SC5314) was > 75 µM, the MFC (Candida albicans SC5314) was > 75 µM and the MIC [1] was > 75 µM. The MFC [1] was > 75 µM, the MIC (Candida glabrata Cg003) was > 75 µM and the MFC (Candida glabrata Cg003) was > 75 µM. The MIC (Candida krusei ATCC 6258) was > 75 µM, the MFC (Candida krusei ATCC 6258) was > 75 µM and the MIC [2] was > 75 µM. For the same compound, the MFC [2] was > 75 µM, the MIC [3] was > 75 µM and the MIC [4] was > 75 µM.
With CN1CCN(CC(O)Cn2c3ccc(O)cc3c3cc(O)ccc32)CC1 (stereo not drawn) [Compound 13, 9-(2-hydroxy-3-(4-methylpiperazin-1-yl)propyl)-9H-carbazole-3,6-diol] the MIC (Candida albicans SC5314) was > 75 µM, the MFC (Candida albicans SC5314) was > 75 µM and the MIC [1] was > 75 µM. The MFC [1] was > 75 µM, the MIC (Candida glabrata Cg003) was > 75 µM and the MFC (Candida glabrata Cg003) was > 75 µM. The MIC (Candida krusei ATCC 6258) was > 75 µM, the MFC (Candida krusei ATCC 6258) was > 75 µM and the MIC [2] was > 75 µM. For the same compound, the MFC [2] was > 75 µM, the MIC [3] was > 75 µM and the MIC [4] was > 75 µM.
CN(C)CCCn1c2ccc(Cl)cc2c2cc(Cl)ccc21 [Compound 14, 3-(3,6-dichloro-9H-carbazol-9-yl)-N,N-dimethyl-propan-1-amine] was tested, and the MIC (Candida albicans SC5314) was 24 µM (≈ 7.71 µg/mL), the MFC (Candida albicans SC5314) was 75 µM (≈ 24.1 µg/mL) and the MIC [1] was 24 µM (≈ 7.71 µg/mL). The MFC [1] was 24 µM (≈ 7.71 µg/mL), the MIC (Candida glabrata Cg003) was 24 µM (≈ 7.71 µg/mL) and the MFC (Candida glabrata Cg003) was 75 µM (≈ 24.1 µg/mL). For the same compound, the MIC (Candida krusei ATCC 6258) was 13 µM (≈ 4.18 µg/mL), the MFC (Candida krusei ATCC 6258) was 24 µM (≈ 7.71 µg/mL) and the MIC [2] was 5.8 µM (≈ 1.86 µg/mL). For the same compound, the MFC [2] was 16 µM (≈ 5.14 µg/mL), the MIC [3] was 75 µM (≈ 24.1 µg/mL) and the MIC [4] was 7.5 µM (≈ 2.41 µg/mL).
CN(C)CCCCn1c2ccc(Cl)cc2c2cc(Cl)ccc21 [Compound 15] was tested, and the MIC (Candida albicans SC5314) was 24 µM (≈ 8.05 µg/mL), the MFC (Candida albicans SC5314) was 24 µM (≈ 8.05 µg/mL) and the MIC [1] was 7.5 µM (≈ 2.51 µg/mL). The MFC [1] was 7.5 µM (≈ 2.51 µg/mL), the MIC (Candida glabrata Cg003) was 7.5 µM (≈ 2.51 µg/mL) and the MFC (Candida glabrata Cg003) was 24 µM (≈ 8.05 µg/mL). It also gave an MIC (Candida krusei ATCC 6258) of 7.5 µM (≈ 2.51 µg/mL), an MFC (Candida krusei ATCC 6258) of 16 µM (≈ 5.36 µg/mL) and an MIC [2] of 2.4 µM (≈ 0.805 µg/mL). The MFC [2] was 5 µM (≈ 1.68 µg/mL), the MIC [3] was 75 µM (≈ 25.1 µg/mL) and the MIC [4] was 24 µM (≈ 8.05 µg/mL).
CN1CCN(CCCn2c3ccc(Cl)cc3c3cc(Cl)ccc32)CC1 [Compound 16, 3,6-dichloro-9-(3-(4-methylpiperazin-1-yl)propyl)-9H-carbazole] was tested, and the MIC (Candida albicans SC5314) was 24 µM (≈ 9.03 µg/mL), the MFC (Candida albicans SC5314) was 24 µM (≈ 9.03 µg/mL) and the MIC [1] was 7.5 µM (≈ 2.82 µg/mL). It also gave an MFC [1] of 7.5 µM (≈ 2.82 µg/mL), an MIC (Candida glabrata Cg003) of 7.5 µM (≈ 2.82 µg/mL) and an MFC (Candida glabrata Cg003) of 7.5 µM (≈ 2.82 µg/mL). The MIC (Candida krusei ATCC 6258) was 7.5 µM (≈ 2.82 µg/mL), the MFC (Candida krusei ATCC 6258) was 7.5 µM (≈ 2.82 µg/mL) and the MIC [2] was 2.4 µM (≈ 0.903 µg/mL). It also gave an MFC [2] of 2.4 µM (≈ 0.903 µg/mL), an MIC [3] of 75 µM (≈ 28.2 µg/mL) and an MIC [4] of 24 µM (≈ 9.03 µg/mL).
For Clc1ccc2c(c1)c1cc(Cl)ccc1n2CCCN1CCOCC1 [Compound 18, 4-(3-(3,6-dichloro-9H-carbazol-9-yl)propyl)morpholine], the MIC (Candida albicans SC5314) was > 75 µM, the MFC (Candida albicans SC5314) was > 75 µM and the MIC [1] was > 75 µM. The MFC [1] was > 75 µM, the MIC (Candida glabrata Cg003) was > 75 µM and the MFC (Candida glabrata Cg003) was > 75 µM. The MIC (Candida krusei ATCC 6258) was > 75 µM, the MFC (Candida krusei ATCC 6258) was > 75 µM and the MIC [2] was > 75 µM. The MFC [2] was > 75 µM, the MIC [3] was > 75 µM and the MIC [4] was > 75 µM.
